Patent US20100003246A1, “Novel heterocyclic compounds and uses therof” (priority 2008, published 2010)

Target: T1, b-Raf(V600E) (Homo sapiens, UniProt P15056, V600E)
T1 construct: made in house
Assay: Raf/Mek Amplified Luminescence Proximity Homogeneous Assay (Alpha Screen), b-Raf(V600E)
Type: biochemical
Settings: mutant b-Raf(V600E), read-out: mut-b-RAF (IC50 in uM)
Protocol: Assay buffer: 50 mM Tris, pH 7.5, 15 mM MgCl2, 0.01% BSA, 1 mM DTT Stop buffer: 60 mM EDTA, 0.01% Tween20 Bead buffer: 50 mM Tris, pH 7.5, 0.01% Tween20
b-Raf(V600E), active: Recombinant in-house material biotinylated Mek, kinase dead: Recombinant in-house material Alpha Screen detection kit PerkinElmer, #6760617R Anti phospho-MEK½ Cell signaling #9121 384 well assay plates: White Greiner plates, #781207
b-Raf(V600E) approximately 4 pM c-Raf approximately 4 nM biotinylated Mek, Kinase dead approximately 10 nM
Pre-incubation time with compounds 60 min at room temperature Reaction time 1 or 3 hours at room temperature
Raf and biotinylated Mek, kinase dead, were combined at 2× final concentrations in assay buffer (50 mM Tris, pH 7.5, 15 mM MgCl2, 0.01% BSA and 1 mM DTT) and dispensed 10 μl per well in assay plates (Greiner white 384 well assay plates #781207) containing 0.5 μl of 40× of a raf kinase inhibitor test compound diluted in 100% DMSO. The plate was incubated for 60 min at room temperature.
The Raf kinase activity reaction was started by the addition of 10 μl per well of 2×ATP diluted in assay buffer. After 3 hours (bRaf(V600E)) or 1 hour (c-Raf), the reactions were stopped with the addition of 10 μl of stop reagent (60 mM EDTA). Phosphorylated product was measured using a rabbit anti-p-MEK (Cell Signaling, #9121) antibody and the Alpha Screen IgG (Protein A) detection Kit (PerkinElmer #6760617R), by the addition of 30 μL to the well of a mixture of the antibody (1:2000 dilution) and detection beads (1:2000 dilution of both beads) in bead buffer (50 mM Tris, pH 7.5, 0.01% Tween20). The additions were carried out under dark conditions to protect the detection beads from light. A lid was placed on top of the plate and incubated for 1 hour at room temperature, then the luminescence was read on a PerkinElmer Envision instrument. The concentration of each compound for 50% inhibition (IC50) was calculated by non-linear regression using XL Fit data analysis software.
The Raf/Mek Amplified Luminescence Proximity Homogeneous Assay described was used to generate the luminescence and mutant b-Raf(V600E) IC50 data for selected Raf Kinase Inhibitors shown in Table 1 above.

T1 sequence (P15056 whole entry V600E): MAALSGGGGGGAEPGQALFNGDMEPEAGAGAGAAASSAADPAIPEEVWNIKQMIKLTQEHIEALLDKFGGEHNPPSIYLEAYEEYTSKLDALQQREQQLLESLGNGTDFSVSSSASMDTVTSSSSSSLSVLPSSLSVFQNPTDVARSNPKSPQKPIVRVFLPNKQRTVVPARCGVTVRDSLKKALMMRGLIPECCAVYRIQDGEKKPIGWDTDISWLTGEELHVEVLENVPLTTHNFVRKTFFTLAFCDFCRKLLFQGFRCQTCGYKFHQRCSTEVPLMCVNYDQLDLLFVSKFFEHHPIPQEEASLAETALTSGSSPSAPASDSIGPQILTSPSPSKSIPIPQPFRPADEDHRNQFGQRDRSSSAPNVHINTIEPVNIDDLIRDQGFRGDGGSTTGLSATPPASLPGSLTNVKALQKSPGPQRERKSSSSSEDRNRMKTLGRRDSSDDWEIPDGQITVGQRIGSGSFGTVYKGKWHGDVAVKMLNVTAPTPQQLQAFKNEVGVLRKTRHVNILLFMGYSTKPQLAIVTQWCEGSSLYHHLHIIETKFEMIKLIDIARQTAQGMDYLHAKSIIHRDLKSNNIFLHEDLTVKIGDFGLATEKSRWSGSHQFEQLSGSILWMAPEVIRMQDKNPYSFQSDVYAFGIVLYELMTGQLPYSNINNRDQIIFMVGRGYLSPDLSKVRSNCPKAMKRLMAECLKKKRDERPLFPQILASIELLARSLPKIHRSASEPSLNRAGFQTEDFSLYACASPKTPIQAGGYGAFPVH

For `Nc1n[nH]c2cc(-c3[nH]c(-c4ccccc4)nc3-c3ccncc3)ccc12` [Compound 24, 6-(2-phenyl-4-(pyridin-4-yl)-1H-imidazol-5-yl)-1H-indazol-3-amine], which IC50 is on record?
The IC50 was 0.058 µM.

Which IC50 does the source give for `Nc1ncc(-c2[nH]c(-c3ccccc3)nc2-c2ccncc2)cn1` [Compound 25, 5-(2-phenyl-4-(pyridin-4-yl)-1H-imidazol-5-yl)pyrimidin-2-amine] here?
Its IC50 is 0.489 µM.

`Nc1n[nH]c2ccc(-c3[nH]c(-c4ccccc4)nc3-c3ccncc3)cc12` [Compound 26, 5-(2-phenyl-4-(pyridin-4-yl)-1H-imidazol-5-yl)-1H-indazol-3-amine] was tested. Which IC50 did it give?
The IC50 was 0.173 µM.

Which IC50 does the source give for `Nc1cc(-c2[nH]c(-c3ccccc3)nc2-c2ccncc2)ccn1` [Compound 27, 4-(2-phenyl-4-(pyridin-4-yl)-1H-imidazol-5-yl)pyridin-2-amine] here?
The IC50 was 0.417 µM.

`CC(=O)Nc1n[nH]c2cc(-c3[nH]c(-c4ccccc4)nc3-c3ccncc3)ccc12` [Compound 28, N-(6-(2-phenyl-4-(pyridin-4-yl)-1H-imidazol-5-yl)-1H-indazol-3-yl)acetamide] was tested. Which IC50 did it give?
Its IC50 is 0.449 µM.

How did the IC50 turn out when `Nc1ccc(-c2[nH]c(-c3ccccc3)nc2-c2ccncc2)cn1` [Compound 29, 5-(2-phenyl-4-(pyridin-4-yl)-1H-imidazol-5-yl)pyridin-2-amine] was run?
The IC50 was 0.26 µM.

For `Nc1n[nH]c2cc(-c3[nH]c(-c4ccccc4)nc3-c3ccncc3)cc(F)c12` [Compound 30, 4-fluoro-6-(2-phenyl-4-(pyridin-4-yl)-1H-imidazol-5-yl)-1H-indazol-3-amine], which IC50 is on record?
The IC50 was 0.528 µM.

With `c1ccc(-c2nc(-c3ccncc3)c(-c3ccc4cn[nH]c4c3)[nH]2)cc1` [Compound 32, 6-(2-phenyl-4-(pyridin-4-yl)-1H-imidazol-5-yl)-1H-indazole] as the compound, how does the IC50 read?
Its IC50 is 0.017 µM.

`c1ccc(-c2nc(-c3ccncc3)c(-c3ccc4cc[nH]c4c3)[nH]2)cc1` [Compound 33, 6-(2-phenyl-4-(pyridin-4-yl)-1H-imidazol-5-yl)-1H-indole] was tested. Which IC50 did it give?
Its IC50 is 0.054 µM.

With `c1ccc(-c2nc(-c3ccncc3)c(-c3ccc4cnoc4c3)[nH]2)cc1` [Compound 34, 6-(2-phenyl-4-(pyridin-4-yl)-1H-imidazol-5-yl)benzo[d]isoxazole] as the compound, how does the IC50 read?
The IC50 was 0.005 µM.

How did the IC50 turn out when `Cc1n[nH]c2ccc(-c3[nH]c(-c4ccccc4)nc3-c3ccncc3)cc12` [Compound 35, 3-methyl-5-(2-phenyl-4-(pyridin-4-yl)-1H-imidazol-5-yl)-1H-indazole] was run?
Its IC50 is 0.099 µM.

Which IC50 does the source give for `COc1cncc(-c2[nH]c(-c3ccccc3)nc2-c2ccncc2)c1` [Compound 36, 3-methoxy-5-(2-phenyl-4-(pyridin-4-yl)-1H-imidazol-5-yl)pyridine] here?
Its IC50 is 0.013 µM.

With `Nc1ccc(-c2[nH]c(-c3ccccc3)nc2-c2ccncc2)c(F)n1` [Compound 37, 6-fluoro-5-(2-phenyl-4-(pyridin-4-yl)-1H-imidazol-5-yl)pyridin-2-amine] as the compound, how does the IC50 read?
The IC50 was 0.387 µM.

Which IC50 does the source give for `COc1nc(-c2[nH]c(-c3ccccc3)nc2-c2ccncc2)cnc1N` [Compound 39, 3-methoxy-5-(2-phenyl-4-(pyridin-4-yl)-1H-imidazol-5-yl)pyrazin-2-amine] here?
Its IC50 is 0.006 µM.

How did the IC50 turn out when `COc1cc(N)ncc1-c1[nH]c(-c2ccccc2)nc1-c1ccncc1` [Compound 40, 4-methoxy-5-(2-phenyl-4-(pyridin-4-yl)-1H-imidazol-5-yl)pyridin-2-amine] was run?
Its IC50 is 0.502 µM.

How did the IC50 turn out when `COc1ncc(-c2[nH]c(-c3ccccc3)nc2-c2ccncc2)cc1N` [Compound 42, 2-methoxy-5-(2-phenyl-4-(pyridin-4-yl)-1H-imidazol-5-yl)pyridin-3-amine] was run?
Its IC50 is 0.349 µM.

With `CNc1ncc(-c2[nH]c(-c3ccccc3)nc2-c2ccncc2)cc1OC` [Compound 43, 3-methoxy-N-methyl-5-(2-phenyl-4-(pyridin-4-yl)-1H-imidazol-5-yl)pyridin-2-amine] as the compound, how does the IC50 read?
Its IC50 is 0.025 µM.

Which IC50 does the source give for `Oc1ccc(-c2[nH]c(-c3ccccc3)nc2-c2ccncc2)cn1` [Compound 44, 5-(2-phenyl-4-(pyridin-4-yl)-1H-imidazol-5-yl)pyridin-2-ol] here?
The IC50 was 0.465 µM.

How did the IC50 turn out when `c1ccc(-c2nc(-c3ccncc3)c(-c3cnc4[nH]ccc4c3)[nH]2)cc1` [Compound 45, 5-(2-phenyl-4-(pyridin-4-yl)-1H-imidazol-5-yl)-1H-pyrrolo[2,3-b]pyridine] was run?
The IC50 was 0.0046 µM.

For `Nc1ncc(-c2[nH]c(-c3ccccc3)nc2-c2ccncc2)cc1Cl` [Compound 46, 3-chloro-5-(2-phenyl-4-(pyridin-4-yl)-1H-imidazol-5-yl)pyridin-2-amine], which IC50 is on record?
Its IC50 is 0.0287 µM.

For `O=C1CCc2cc(-c3[nH]c(-c4ccccc4)nc3-c3ccncc3)cnc2N1` [Compound 47, 6-(2-phenyl-4-(pyridin-4-yl)-1H-imidazol-5-yl)-3,4-dihydro-1,8-naphthyridin-2(1H)-one], which IC50 is on record?
Its IC50 is 0.885 µM.

For `COc1cc(-c2nc(-c3ccccc3)[nH]c2-c2ccnc(C)c2)cnc1N` [Compound 48, 3-methoxy-5-(5-(2-methylpyridin-4-yl)-2-phenyl-1H-imidazol-4-yl)pyridin-2-amine], which IC50 is on record?
Its IC50 is 0.12 µM.

Which IC50 does the source give for `c1ccc(-c2nc(-c3ccncc3)c(-c3cnc4[nH]ncc4c3)[nH]2)cc1` [Compound 49, 5-(2-phenyl-4-(pyridin-4-yl)-1H-imidazol-5-yl)-1H-pyrazolo[3,4-b]pyridine] here?
The IC50 was 0.0222 µM.

With `COc1nc(-c2[nH]c(C)nc2-c2ccncc2)cnc1N` [Compound 50, 3-methoxy-5-(2-methyl-4-(pyridin-4-yl)-1H-imidazol-5-yl)pyrazin-2-amine] as the compound, how does the IC50 read?
Its IC50 is 0.259 µM.

Which IC50 does the source give for `COc1cc(-c2[nH]c(C)nc2-c2ccncc2)cnc1N` [Compound 51, 3-methoxy-5-(2-methyl-4-(pyridin-4-yl)-1H-imidazol-5-yl)pyridin-2-amine] here?
Its IC50 is 0.0196 µM.

With `c1ccc(-c2nc(-c3ccncc3)c(-c3cnc4c(c3)CCN4)[nH]2)cc1` [Compound 52, 5-(2-phenyl-4-(pyridin-4-yl)-1H-imidazol-5-yl)-2,3-dihydro-1H-pyrrolo[2,3-b]pyridine] as the compound, how does the IC50 read?
The IC50 was 0.0123 µM.

For `c1ccc(-c2nc(-c3ccncc3)c(-c3cnc4[nH]cnc4c3)[nH]2)cc1` [Compound 53, 6-(2-phenyl-4-(pyridin-4-yl)-1H-imidazol-5-yl)-3H-imidazo[4,5-b]pyridine], which IC50 is on record?
Its IC50 is 0.29 µM.

How did the IC50 turn out when `COc1cc(-c2nc(-c3ccccc3)[nH]c2-c2ccnc(N)c2)cnc1N` [Compound 55, 5-(5-(2-aminopyridin-4-yl)-2-phenyl-1H-imidazol-4-yl)-3-methoxypyridin-2-amine] was run?
Its IC50 is 0.0098 µM.

How did the IC50 turn out when `CNc1nccc(-c2[nH]c(-c3ccccc3)nc2-c2cnc(N)c(OC)c2)n1` [Compound 56, 4-(4-(6-amino-5-methoxypyridin-3-yl)-2-phenyl-1H-imidazol-5-yl)-N-methylpyrimidin-2-amine] was run?
The IC50 was 0.0029 µM.

For `c1ccc(-c2nc(-c3ccncc3)c(-c3ccsc3)[nH]2)cc1` [Compound 57, 4-(2-phenyl-5-(thiophen-3-yl)-1H-imidazol-4-yl)pyridine], which IC50 is on record?
Its IC50 is 0.62 µM.

How did the IC50 turn out when `COc1cc(-c2[nH]c(-c3ccccc3)nc2-c2ccnc(N[C@@H]3CCCN(S(=O)(=O)c4ccc(Cl)cc4)C3)n2)cnc1N` [Compound 58, (R)-4-(5-(6-amino-5-methoxypyridin-3-yl)-2-phenyl-1H-imidazol-4-yl)-N-(1-(4-chlorophenylsulfonyl)piperidin-3-yl)pyrimidin-2-amine] was run?
The IC50 was 0.0002 µM.

For `c1ccc(-c2nc(-c3ccncc3)c(-c3cnc4c(n3)CCN4)[nH]2)cc1` [Compound 59, 2-(2-phenyl-4-(pyridin-4-yl)-1H-imidazol-5-yl)-6,7-dihydro-5H-pyrrolo[3,2-b]pyrazine], which IC50 is on record?
The IC50 was 0.68 µM.

How did the IC50 turn out when `COc1cc(-c2nc(-c3ccccc3)[nH]c2-c2ccncn2)cnc1N` [Compound 61, 3-methoxy-5-(2-phenyl-5-(pyrimidin-4-yl)-1H-imidazol-4-yl)pyridin-2-amine] was run?
The IC50 was 0.0049 µM.

Which IC50 does the source give for `COc1cc(-c2[nH]c(-c3ccccc3)nc2-c2ccnc(N[C@H]3CCCN(S(=O)(=O)c4ccc(Cl)cc4)C3)n2)cnc1N` [Compound 62, (S)-4-(5-(6-amino-5-methoxypyridin-3-yl)-2-phenyl-1H-imidazol-4-yl)-N-(1-(4-chlorophenylsulfonyl)piperidin-3-yl)pyrimidin-2-amine] here?
The IC50 was 0.0003 µM.

For `COc1cc(-c2nc(-c3ccccc3)[nH]c2-c2ccnc(N(C)C)n2)cnc1N` [Compound 63, 4-(4-(6-amino-5-methoxypyridin-3-yl)-2-phenyl-1H-imidazol-5-yl)-N,N-dimethylpyrimidin-2-amine], which IC50 is on record?
Its IC50 is 0.641 µM.

Which IC50 does the source give for `COc1cc(-c2ccc(S(=O)(=O)N3CCC[C@@H](Nc4nccc(-c5nc(-c6ccccc6)[nH]c5-c5cnc(N)c(OC)c5)n4)C3)cc2)cnc1N` [Compound 64, (R)-4-(5-(6-amino-5-methoxypyridin-3-yl)-2-phenyl-1H-imidazol-4-yl)-N-(1-(4-(6-amino-5-methoxypyridin-3-yl)phenylsulfonyl)piperidin-3-yl)pyrimidin-2-amine] here?
Its IC50 is 0.0003 µM.
